Tests used:
[1] = target: S. aureus DNA gyrase (Staphylococcus aureus, UniProt P0A0K8+P20831); assay: DNA gyrase supercoiling assay; format: biochemical; details: pBR322, read-out: IC50 ± S.E.M. for DNA Gyrase (converted)
Protocol: Description related to conducted biological studies including cell culture, suitable conditions, and methodology was presented in our previous paper.
Figure 2 The influence of tested compounds on S. aureus DNA gyrase activity. Decreasing amounts of 1, 2, or 3 were incubated with supercoiled pBR322 plasmid DNA (500 ng) and run-on agarose gel. Lane 1: S. aureus DNA gyrase assay with DMSO (control). Lane: 2–5: compound 3 at concentrations 64, 32, 8, 2 μg/mL, respectively. Lane: 6–9: compound 2 at concentrations 64, 32, 8, 2 μg/mL, respectively. Lane: 10–13: compound 1 at concentrations 64, 32, 8, 2 μg/mL, respectively.

[2] = system: standard and clinical Gram-positive and Gram-negative bacterial strains; assay: MIC range over standard and clinical strains (abstract); format: cell-based
Protocol: Eleven novel imide-tetrazoles were synthesized. In the initial stage of research, in silico structure-based pharmacological prediction was conducted. All compounds were screened for antimicrobial activity using standard and clinical strains. Within the studied group, compounds 1–3 were recognized as leading structures with the most promising results in antimicrobial studies. […] Additionally, all three inhibited the growth of all clinical Staphylococci panels: Staphylococcus aureus (T5592; T5591) and Staphylococcus epidermidis (5253; 4243) with MIC values of 0.8 μg/mL. Selected compounds were examined in topoisomerase IV decatenation assay and DNA gyrase supercoiling assay, followed by suitable molecular docking studies to explore the possible binding modes. […] The compounds 1–3 proposed here provide a promising basis for further exploration towards novel antimicrobial drug candidates.
The antimicrobial assays were conducted using reference strains of bacteria derived from international microbe collections: American Type Culture Collection (ATCC) and National Collection of Type Culture (NCTC). The following standard strains of bacteria were used: Gram-positive—Staphylococcus aureus NCTC 4163, Staphylococcus aureus ATCC 25923, Staphylococcus aureus ATCC 6538, Staphylococcus aureus ATCC 29213, Staphylococcus epidermidis ATCC 12228, Staphylococcus epidermidis ATCC 35984, Gram-negative: Escherichia coli ATCC 25922, Pseudomonas aeruginosa ATCC 15442. […] MIC was determined by the two-fold serial broth microdilution method in 96-well microtitration plates using Mueller–Hinton II broth medium (Becton Dickinson, Franklin Lakes, NJ, USA). […]

[3] = system: standard bacteria strains; assay: MIC ranges over the panel of standard strains; format: cell-based
Protocol: All synthesized compounds were tested in vitro against a set of bacteria, including representative standard Gram-positive and Gram-negative rods. Compounds were screened for their minimal inhibitory concentrations (MICs). […] These three compounds were also found to be good inhibitors of the growth of Gram-negative rods: […] The antimicrobial assays were conducted using reference strains of bacteria derived from international microbe collections: American Type Culture Collection (ATCC) and National Collection of Type Culture (NCTC). The following standard strains of bacteria were used: Gram-positive-Staphylococcus aureus NCTC 4163, Staphylococcus aureus ATCC 25923, Staphylococcus aureus ATCC 6538, Staphylococcus aureus ATCC 29213, Staphylococcus epidermidis ATCC 12228, Staphylococcus epidermidis ATCC 35984, Gram-negative: Escherichia coli ATCC 25922, Pseudomonas aeruginosa ATCC 15442. Clinical strains of bacteria used in this study: Gram-positive: Staphylococcus epidermidis 5253, Staphylococcus epidermidis 4243, Staphylococcus aureus […], Staphylococcus aureus […] and Gram-negative: Escherichia coli 520, Escherichia coli 600, Klebsiella pneumoniae 510 and Pseudomonas aeruginosa 659 were obtained from the collection of the Department of Pharmaceutical Microbiology, Medical University of Warsaw, Poland and they were isolated from different biological materials taken from the patients hospitalized in the Warsaw Medical University hospitals. Antimicrobial activity was examined by the minimal inhibitory concentration (MIC) method under standard procedures provided by CLSI with some modifications. MIC was determined by the two-fold serial broth microdilution method in 96-well microtitration plates using Mueller-Hinton II broth medium (Becton Dickinson, Franklin Lakes, NJ, USA). The final inoculum of all studied bacteria was 10^6 CFU/mL (colony forming unit per milliliter). The stock solution of tested compounds was prepared in dimethyl sulfoxide (DMSO) and diluted to a maximum of 1% of solvent content with a sterile medium.

[4] = Gram-negative rods: E. coli and P. aeruginosa (standard strains)
[5] = against standard Gram-positive Staphylococci

Sequence of S. aureus DNA gyrase (P0A0K8 whole entry): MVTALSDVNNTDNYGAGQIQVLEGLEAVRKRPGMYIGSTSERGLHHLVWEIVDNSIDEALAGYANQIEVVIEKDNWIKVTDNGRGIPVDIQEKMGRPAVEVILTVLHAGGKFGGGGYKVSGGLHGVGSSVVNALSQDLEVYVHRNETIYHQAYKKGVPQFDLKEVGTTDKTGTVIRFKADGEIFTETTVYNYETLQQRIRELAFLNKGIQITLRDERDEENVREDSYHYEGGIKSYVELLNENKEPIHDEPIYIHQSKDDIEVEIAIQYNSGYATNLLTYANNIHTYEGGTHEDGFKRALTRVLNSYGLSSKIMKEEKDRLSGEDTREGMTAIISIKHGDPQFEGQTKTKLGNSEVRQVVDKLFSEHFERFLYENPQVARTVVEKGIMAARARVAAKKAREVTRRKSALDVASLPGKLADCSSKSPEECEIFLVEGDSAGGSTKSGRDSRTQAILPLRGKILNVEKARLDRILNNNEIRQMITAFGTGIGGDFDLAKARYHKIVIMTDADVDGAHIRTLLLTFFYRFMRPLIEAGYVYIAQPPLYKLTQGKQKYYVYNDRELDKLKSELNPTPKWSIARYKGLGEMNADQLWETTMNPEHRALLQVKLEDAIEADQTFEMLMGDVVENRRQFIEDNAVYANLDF
Sequence of S. aureus DNA gyrase (P20831 whole entry): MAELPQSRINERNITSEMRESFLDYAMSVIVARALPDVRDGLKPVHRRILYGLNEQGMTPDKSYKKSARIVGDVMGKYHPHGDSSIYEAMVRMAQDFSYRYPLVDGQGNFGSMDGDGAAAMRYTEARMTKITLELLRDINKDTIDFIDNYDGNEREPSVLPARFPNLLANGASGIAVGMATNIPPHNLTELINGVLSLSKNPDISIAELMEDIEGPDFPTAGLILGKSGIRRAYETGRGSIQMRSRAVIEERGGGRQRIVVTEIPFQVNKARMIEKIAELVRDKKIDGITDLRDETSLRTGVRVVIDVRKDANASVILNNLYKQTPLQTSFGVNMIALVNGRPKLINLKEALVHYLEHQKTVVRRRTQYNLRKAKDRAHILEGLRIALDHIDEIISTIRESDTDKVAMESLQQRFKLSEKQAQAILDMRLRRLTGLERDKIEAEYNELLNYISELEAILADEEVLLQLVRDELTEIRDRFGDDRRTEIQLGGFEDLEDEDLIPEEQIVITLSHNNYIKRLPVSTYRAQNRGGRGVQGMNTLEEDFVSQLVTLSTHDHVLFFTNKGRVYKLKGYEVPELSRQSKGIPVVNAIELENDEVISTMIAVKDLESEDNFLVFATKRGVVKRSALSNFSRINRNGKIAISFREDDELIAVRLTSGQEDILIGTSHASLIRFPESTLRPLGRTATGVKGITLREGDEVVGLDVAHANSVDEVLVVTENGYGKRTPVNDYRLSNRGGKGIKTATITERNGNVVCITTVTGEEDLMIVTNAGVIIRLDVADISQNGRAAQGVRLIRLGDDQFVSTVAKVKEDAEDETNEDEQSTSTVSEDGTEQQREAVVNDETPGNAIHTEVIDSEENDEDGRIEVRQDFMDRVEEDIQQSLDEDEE

CC1=C(C)C2(C)CC1(C)C1C(=O)N(Nc3nnnn3-c3cccc(C(F)(F)F)c3)C(=O)C12 (stereo not drawn) [Compound 1, 4,5,6,7-Tetramethyl-2-((1-(3-(trifluoromethyl)phenyl)-1H-tetrazol-5-yl)amino)-3a,4,7,7a-tetrahydro-1H-4,7-methanoisoindole-1,3(2H)-dione]
IC50 [1]: 71.8 µM | MIC values, range [2]: 0.8 to 3.2 mg/L | MIC values, range [3, 4]: 0.4 to 25.6 mg/L | MIC values, range [3, 5]: 0.1 to 3.2 mg/L

CC1=C(C)C2(C)CC1(C)C1C(=O)N(Nc3nnnn3-c3ccccc3Br)C(=O)C12 (stereo not drawn) [Compound 3, 2-((1-(2-Bromophenyl)-1H-tetrazol-5-yl)amino)-4,5,6,7-tetramethyl-3a,4,7,7a-tetrahydro-1H-4,7-methanoisoindole-1,3(2H)-dione]
IC50 [1]: 99.3 µM | MIC values, range [2]: 0.8 to 3.2 mg/L | MIC values, range [3, 4]: 0.4 to 25.6 mg/L | MIC values, range [3, 5]: 0.1 to 3.2 mg/L

CC1=C(C)C2(C)CC1(C)C1C(=O)N(Nc3nnnn3-c3ccccc3Cl)C(=O)C12 (stereo not drawn) [Compound 2, 2-((1-(2-Chlorophenyl)-1H-tetrazol-5-yl)amino)-4,5,6,7-tetramethyl-3a,4,7,7a-tetrahydro-1H-4,7-methanoisoindole-1,3(2H)-dione]
IC50 [1]: 90.9 µM | MIC values, range [2]: 0.8 to 3.2 mg/L | MIC values, range [3, 4]: 0.4 to 25.6 mg/L | MIC values, range [3, 5]: 0.1 to 3.2 mg/L
